Laboratory results published in ChEMBL document CHEMBL1697781, “Assessment of the health effects of chemicals in humans: II. Construction of an adverse effects database for QSAR modeling” (Curr Drug Discov Technol, 2004).

How the values were obtained:
Conditions in all cases: human; call rule not given here
Hepatotoxicity [1] = assay: FDA HLAED, liver enzyme composite activity
Hepatotoxicity [2] = assay: FDA HLAED, alkaline phosphatase increase
Hepatotoxicity [3] = assay: FDA HLAED, serum glutamic oxaloacetic transaminase (SGOT) increase
Hepatotoxicity [4] = assay: FDA HLAED, serum glutamic pyruvic transaminase (SGPT) increase
Hepatotoxicity [5] = assay: FDA HLAED, lactate dehydrogenase (LDH) increase
Hepatotoxicity [6] = assay: FDA HLAED, gamma-glutamyl transferase (GGT) increase
Throughout, for GGT Increase - Index Value: reference of the scale not given here.
Throughout, for LDH Increase - Index Value: reference of the scale not given here.

`CCCC(=O)Nc1ccc(OCC(O)CNC(C)C)c(C(C)=O)c1` (stereo unspecified) [ACEBUTOLOL] was tested, and the “Composite Activity - Active” value (Hepatotoxicity [1]) was 0, the “Composite Activity - Marginal” value (Hepatotoxicity [1]) was 3 and the “Composite Activity - Score” value (Hepatotoxicity [1]) was “Inactive”. The “Alkaline Phosphatase Increase - Activity Score” value (Hepatotoxicity [2]) was “Marginally Active”, the “Alkaline Phosphatase Increase - Index Value” (Hepatotoxicity [2]) was 3.9 and the “Alkaline Phosphatase Increase - Number of Reports” value (Hepatotoxicity [2]) was “>= 4”. For the same molecule, the “SGOT Increase - Activity Score” value (Hepatotoxicity [3]) was “Inactive”, the “SGOT Increase - Index Value” (Hepatotoxicity [3]) was 2.6 and the “SGOT Increase - Number of Reports” value (Hepatotoxicity [3]) was “>= 4”. The “SGPT Increase - Activity Score” value (Hepatotoxicity [4]) was “Marginally Active”, the “SGPT Increase - Index Value” (Hepatotoxicity [4]) was 3.3 and the “SGPT Increase - Number of Reports” value (Hepatotoxicity [4]) was “>= 4”. For the same molecule, the “LDH Increase - Activity Score” value (Hepatotoxicity [5]) was “Marginally Active”, the “LDH Increase - Index Value” (Hepatotoxicity [5]) was 3.3 and the “LDH Increase - Number of Reports” value (Hepatotoxicity [5]) was “>= 4”. The “GGT Increase - Activity Score” value (Hepatotoxicity [6]) was “Inactive”, the “GGT Increase - Index Value” (Hepatotoxicity [6]) was 0 and the “GGT Increase - Number of Reports” value (Hepatotoxicity [6]) was less than 4.

With `CC(=O)Nc1ccc(O)cc1` [ACETAMINOPHEN] the “Composite Activity - Active” value (Hepatotoxicity [1]) was 2, the “Composite Activity - Marginal” value (Hepatotoxicity [1]) was 3 and the “Composite Activity - Score” value (Hepatotoxicity [1]) was “Active”. For the same molecule, the “Alkaline Phosphatase Increase - Activity Score” value (Hepatotoxicity [2]) was “Marginally Active”, the “Alkaline Phosphatase Increase - Index Value” (Hepatotoxicity [2]) was “No Shipping Units” and the “Alkaline Phosphatase Increase - Number of Reports” value (Hepatotoxicity [2]) was “>= 4”. For the same molecule, the “SGOT Increase - Activity Score” value (Hepatotoxicity [3]) was “Active”, the “SGOT Increase - Index Value” (Hepatotoxicity [3]) was “No Shipping Units” and the “SGOT Increase - Number of Reports” value (Hepatotoxicity [3]) was “>= 4”. For the same molecule, the “SGPT Increase - Activity Score” value (Hepatotoxicity [4]) was “Active”, the “SGPT Increase - Index Value” (Hepatotoxicity [4]) was “No Shipping Units” and the “SGPT Increase - Number of Reports” value (Hepatotoxicity [4]) was “>= 4”. For the same molecule, the “LDH Increase - Activity Score” value (Hepatotoxicity [5]) was “Marginally Active”, the “LDH Increase - Index Value” (Hepatotoxicity [5]) was “No Shipping Units” and the “LDH Increase - Number of Reports” value (Hepatotoxicity [5]) was “>= 4”. The “GGT Increase - Activity Score” value (Hepatotoxicity [6]) was “Marginally Active”, the “GGT Increase - Index Value” (Hepatotoxicity [6]) was “No Shipping Units” and the “GGT Increase - Number of Reports” value (Hepatotoxicity [6]) was “>= 4”.

In the case of `CC(=O)NO` [ACETOHYDROXAMIC ACID], the “Composite Activity - Active” value (Hepatotoxicity [1]) is reported as 0, the “Composite Activity - Marginal” value (Hepatotoxicity [1]) is reported as 0 and the “Composite Activity - Score” value (Hepatotoxicity [1]) is reported as “Inactive”. The “Alkaline Phosphatase Increase - Activity Score” value (Hepatotoxicity [2]) was “Inactive”, the “Alkaline Phosphatase Increase - Index Value” (Hepatotoxicity [2]) was 0 and the “Alkaline Phosphatase Increase - Number of Reports” value (Hepatotoxicity [2]) was less than 4. For the same molecule, the “SGOT Increase - Activity Score” value (Hepatotoxicity [3]) was “Inactive”, the “SGOT Increase - Index Value” (Hepatotoxicity [3]) was 0 and the “SGOT Increase - Number of Reports” value (Hepatotoxicity [3]) was less than 4. For the same molecule, the “SGPT Increase - Activity Score” value (Hepatotoxicity [4]) was “Inactive”, the “SGPT Increase - Index Value” (Hepatotoxicity [4]) was 0 and the “SGPT Increase - Number of Reports” value (Hepatotoxicity [4]) was less than 4. For the same molecule, the “LDH Increase - Activity Score” value (Hepatotoxicity [5]) was “Inactive”, the “LDH Increase - Index Value” (Hepatotoxicity [5]) was 0 and the “LDH Increase - Number of Reports” value (Hepatotoxicity [5]) was less than 4. The “GGT Increase - Activity Score” value (Hepatotoxicity [6]) was “Inactive”, the “GGT Increase - Index Value” (Hepatotoxicity [6]) was 0 and the “GGT Increase - Number of Reports” value (Hepatotoxicity [6]) was less than 4.

For `Nc1nc2c(ncn2COCCO)c(=O)[nH]1` [ACYCLOVIR], the “Composite Activity - Active” value (Hepatotoxicity [1]) was 0, the “Composite Activity - Marginal” value (Hepatotoxicity [1]) was 0 and the “Composite Activity - Score” value (Hepatotoxicity [1]) was “Inactive”. For the same molecule, the “Alkaline Phosphatase Increase - Activity Score” value (Hepatotoxicity [2]) was “Inactive”, the “Alkaline Phosphatase Increase - Index Value” (Hepatotoxicity [2]) was 0.9 and the “Alkaline Phosphatase Increase - Number of Reports” value (Hepatotoxicity [2]) was “>= 4”. The “SGOT Increase - Activity Score” value (Hepatotoxicity [3]) was “Inactive”, the “SGOT Increase - Index Value” (Hepatotoxicity [3]) was 0.9 and the “SGOT Increase - Number of Reports” value (Hepatotoxicity [3]) was “>= 4”. The “SGPT Increase - Activity Score” value (Hepatotoxicity [4]) was “Inactive”, the “SGPT Increase - Index Value” (Hepatotoxicity [4]) was 0.1 and the “SGPT Increase - Number of Reports” value (Hepatotoxicity [4]) was less than 4. For the same molecule, the “LDH Increase - Activity Score” value (Hepatotoxicity [5]) was “Inactive”, the “LDH Increase - Index Value” (Hepatotoxicity [5]) was 0.1 and the “LDH Increase - Number of Reports” value (Hepatotoxicity [5]) was less than 4. The “GGT Increase - Activity Score” value (Hepatotoxicity [6]) was “Inactive”, the “GGT Increase - Index Value” (Hepatotoxicity [6]) was 0 and the “GGT Increase - Number of Reports” value (Hepatotoxicity [6]) was less than 4.

For `Nc1ncnc2c1ncn2[C@@H]1O[C@H](CO)[C@@H](O)[C@H]1O` [ADENOSINE], the “Composite Activity - Active” value (Hepatotoxicity [1]) was 0, the “Composite Activity - Marginal” value (Hepatotoxicity [1]) was 0 and the “Composite Activity - Score” value (Hepatotoxicity [1]) was “Inactive”. The “Alkaline Phosphatase Increase - Activity Score” value (Hepatotoxicity [2]) was “Inactive”, the “Alkaline Phosphatase Increase - Index Value” (Hepatotoxicity [2]) was 0 and the “Alkaline Phosphatase Increase - Number of Reports” value (Hepatotoxicity [2]) was less than 4. For the same molecule, the “SGOT Increase - Activity Score” value (Hepatotoxicity [3]) was “Inactive”, the “SGOT Increase - Index Value” (Hepatotoxicity [3]) was 0 and the “SGOT Increase - Number of Reports” value (Hepatotoxicity [3]) was less than 4. For the same molecule, the “SGPT Increase - Activity Score” value (Hepatotoxicity [4]) was “Inactive”, the “SGPT Increase - Index Value” (Hepatotoxicity [4]) was 0 and the “SGPT Increase - Number of Reports” value (Hepatotoxicity [4]) was less than 4. The “LDH Increase - Activity Score” value (Hepatotoxicity [5]) was “Inactive”, the “LDH Increase - Index Value” (Hepatotoxicity [5]) was 0 and the “LDH Increase - Number of Reports” value (Hepatotoxicity [5]) was less than 4. For the same molecule, the “GGT Increase - Activity Score” value (Hepatotoxicity [6]) was “Inactive”, the “GGT Increase - Index Value” (Hepatotoxicity [6]) was 0 and the “GGT Increase - Number of Reports” value (Hepatotoxicity [6]) was less than 4.

For `CC(C)(C)NCC(O)c1ccc(O)c(CO)c1` (stereo unspecified) [ALBUTEROL], the “Composite Activity - Active” value (Hepatotoxicity [1]; Liver) was 0, the “Composite Activity - Marginal” value (Hepatotoxicity [1]; Liver) was 0 and the “Composite Activity - Score” value (Hepatotoxicity [1]; Liver) was “Inactive”. For the same molecule, the “Alkaline Phosphatase Increase - Activity Score” value (Hepatotoxicity [2]) was “Inactive”, the “Alkaline Phosphatase Increase - Index Value” (Hepatotoxicity [2]) was 0 and the “Alkaline Phosphatase Increase - Number of Reports” value (Hepatotoxicity [2]) was less than 4. For the same molecule, the “SGOT Increase - Activity Score” value (Hepatotoxicity [3]) was “Inactive”, the “SGOT Increase - Index Value” (Hepatotoxicity [3]) was 0.1 and the “SGOT Increase - Number of Reports” value (Hepatotoxicity [3]) was less than 4. For the same molecule, the “SGPT Increase - Activity Score” value (Hepatotoxicity [4]) was “Inactive”, the “SGPT Increase - Index Value” (Hepatotoxicity [4]) was 0 and the “SGPT Increase - Number of Reports” value (Hepatotoxicity [4]) was less than 4. The “LDH Increase - Activity Score” value (Hepatotoxicity [5]) was “Inactive”, the “LDH Increase - Index Value” (Hepatotoxicity [5]) was 0 and the “LDH Increase - Number of Reports” value (Hepatotoxicity [5]) was less than 4. The “GGT Increase - Activity Score” value (Hepatotoxicity [6]) was “Inactive”, the “GGT Increase - Index Value” (Hepatotoxicity [6]) was 0 and the “GGT Increase - Number of Reports” value (Hepatotoxicity [6]) was less than 4.

For `CCC(=O)OCC(=O)[C@@]1(OC(=O)CC)[C@H](C)C[C@H]2[C@H]3[C@H]([C@@H](O)C[C@@]21C)[C@@]1(C)C=CC(=O)C=C1C[C@H]3Cl` [ALCLOMETASONE DIPROPIONATE], the “Composite Activity - Active” value (Hepatotoxicity [1]) was 0, the “Composite Activity - Marginal” value (Hepatotoxicity [1]) was 0 and the “Composite Activity - Score” value (Hepatotoxicity [1]) was “Inactive”. For the same molecule, the “Alkaline Phosphatase Increase - Activity Score” value (Hepatotoxicity [2]) was “Inactive”, the “Alkaline Phosphatase Increase - Index Value” (Hepatotoxicity [2]) was 0 and the “Alkaline Phosphatase Increase - Number of Reports” value (Hepatotoxicity [2]) was less than 4. For the same molecule, the “SGOT Increase - Activity Score” value (Hepatotoxicity [3]) was “Inactive”, the “SGOT Increase - Index Value” (Hepatotoxicity [3]) was 0 and the “SGOT Increase - Number of Reports” value (Hepatotoxicity [3]) was less than 4. For the same molecule, the “SGPT Increase - Activity Score” value (Hepatotoxicity [4]) was “Inactive”, the “SGPT Increase - Index Value” (Hepatotoxicity [4]) was 0 and the “SGPT Increase - Number of Reports” value (Hepatotoxicity [4]) was less than 4. For the same molecule, the “LDH Increase - Activity Score” value (Hepatotoxicity [5]) was “Inactive”, the “LDH Increase - Index Value” (Hepatotoxicity [5]) was 0 and the “LDH Increase - Number of Reports” value (Hepatotoxicity [5]) was less than 4. For the same molecule, the “GGT Increase - Activity Score” value (Hepatotoxicity [6]) was “Inactive”, the “GGT Increase - Index Value” (Hepatotoxicity [6]) was 0 and the “GGT Increase - Number of Reports” value (Hepatotoxicity [6]) was less than 4.
